Here are results for six compounds from paper PMC10415494, “Ga(III) pyridinecarboxylate complexes: potential analogues of the second generation of therapeutic Ga(III) complexes?” (Journal of Biological Inorganic Chemistry, 2023).

The subject of series [1] is Escherichia coli (E. coli) CCM 3988. As to the kind of experiment: Antimicrobial activity, macrodilution method (growth by A590). It counts as cell-based. Particulars: for IC50: Bacteria, MHB, 37 °C, DMSO max 1.0 vol. %, read-out: IC50 E. coli. The protocol: (§1) The antimicrobial activities of gallium(III) complexes GaPic, GaDpic, GaChel, GaCldpic, free ligands (HPic, H2Dpic, H2Chel, H2Cldpic) and positive controls (cefoxitin (C), ampicillin (A) and piperacillin (P)) were evaluated by macrodilution method using G^+ bacteria (Firmicutes) Staphylococcus aureus (S. aureus) CCM 3953 (Czech Collection of Microorganisms), G^− bacteria (γ-proteobacteria) Escherichia coli (E. coli) CCM 3988, Pseudomonas aeruginosa (P. aeruginosa) CCM 1959 (Czech Collection of Microorganisms) and the yeast Candida parapsilosis (C. parapsilosis) ATCC 22019 (American type culture collection). Cultures of bacteria (in Mueller–Hinton broth, MHB) and yeasts (in Sabouraud’s growth medium, SB) were incubated under shaking (250 rpm) at 37 °C. The growth of bacteria and yeasts was evaluated by measuring the absorbance of the growing cultures (A590) until the cultures reached the stationary growth phase. The effects of gallium(III) complexes on the growth of filamentous fungi Rhizopus oryzae (R. oryzae) CCM F-8284, Alternaria alternata (A. alternata) CCM F-128 and Microsporum gypseum (M. gypseum) CCM F-8342 (Czech Collection of Microorganisms) were observed by macrodilution method on solidified potato-dextrose growth medium (PDA). During culturing, the diameters of growing fungal colonies were measured at regular intervals. Briefly, the antimicrobial activity (bacteria and yeasts) gallium(III) complexes/ ligands were added to the microbial culture at the beginning of the cultivation-to the lag phase. Pure gallium(III) complexes/ligands were dissolved in DMSO. The final concentration of DMSO never exceeded 1.0 vol. % neither in control nor treated samples. Concentration of gallium(III) complexes used in experimental work for evaluation of antimicrobial activity was used in the range of 0.05–2 mM, for the free ligands in the range of 0.5–2.0 mM in all experiments. […] The IC50 values were evaluated from toxicity curves. All the obtained results of antimicrobial activity were compared to the activity of Ga(NO3)3.

Series [2] relates to Pseudomonas aeruginosa (P. aeruginosa) CCM 1959. The description is as above. It counts as cell-based. To be noted: for IC50: Bacteria, MHB, 37 °C, DMSO max 1.0 vol. %, read-out: IC50 P. aeruginosa; for MIC100 (MIC) P. aeruginosa: growth fully inhibited (100%). The protocol: as §1
The subject of series [3] is Staphylococcus aureus (S. aureus) CCM 3953. The series is described as above. It counts as cell-based. To be noted: for IC50: Bacteria, MHB, 37 °C, DMSO max 1.0 vol. %, read-out: IC50 S. aureus. As to the method:
as §1

Series [4] has as its system Candida parapsilosis (C. parapsilosis) ATCC 22019. Kind of series: Antimicrobial activity, macrodilution method (yeast, growth by A590). It counts as cell-based. To be noted: Yeast; Sabouraud's growth medium, 37 °C; read-out: IC50 C. parapsilosis. As to the method:
as §1

Series [5] has as its system Alternaria alternata (A. alternata) CCM F-128. As to the kind of experiment: Growth of filamentous fungi, macrodilution method on solidified PDA (colony diameter). It counts as cell-based. To be noted: Filamentous fungi; solidified potato-dextrose growth medium; read-out: IC50 A. alternata. The protocol: as §1
In series [6] the test system is Microsporum gypseum (M. gypseum) CCM F-8342. The series is described as above. It counts as cell-based. To be noted: Filamentous fungi; solidified potato-dextrose growth medium; read-out: IC50 M. gypseum. The protocol: as §1
For series [7], the system named is Rhizopus oryzae (R. oryzae) CCM F-8284. The description is as above. It counts as cell-based. Particulars: solidified potato-dextrose growth medium; read-out: IC50 R. oryzae. As to the method:
as §1

In series [8] the test system is A2058 (human metastatic melanoma). Kind of series: MTS antiproliferative assay. The protocol: (§2) Cell culture the cell lines A2058 (human metastatic melanoma), BLM (human metastatic melanoma), HCT116 (human colorectal carcinoma), HeLa (human cervical adenocarcinoma), Jurkat (human leukaemic T cell lymphoma). […] Cells were maintained in standard conditions with an atmosphere containing 5% CO2 at 37 °C.
(§3) The antiproliferative activity of Ga(III) complexes GaPic, GaDpic, GaChel, GaCldpic, free ligands (HPic, H2Dpic, H2Chel, H2Cldpic) and cisplatin (cisPt) were evaluated by colorimetric microculture MTS (3-(4,5-dimethylthiazol-2-yl)-5-(3-carboxymethoxyphenyl)-2-(4-sulfophenyl)-2H tetrazolium) assay (Promega, Madison, WI, USA). Cancer and non-cancer cells were seeded at density 5 × 10^3 cells/well in 96-well polystyrene microplates. Twenty-four hours after cell seeding, different concentrations (1.0—100.0 µM) of the compounds were tested. After 72 h of incubation, 10 µL of MTS was added to each well. After an additional 2 h, cell proliferation was evaluated by measuring of absorbance at wavelength 490 nm using the automated Cytation™ 3 Cell Imaging Multi-Mode Reader (Biotek, Winooski, VT, USA). The absorbance of control wells was taken as 100%, and the results were expressed as a percent of untreated control. IC50 values were calculated from MTS analyses.

Series [9] deals with HCT116 (human colorectal carcinoma). As to the kind of experiment: MTS antiproliferative assay. As to the method: as §2, §3
In general terms: Formazan colour is commonly taken as a measure of viable cells.

Series [10] concerns HeLa (human cervical adenocarcinoma). Kind of series: MTS antiproliferative assay. As to the method:
as §2, §3

Series [11] has as its system Jurkat (human leukaemic T cell lymphoma). Kind of series: MTS antiproliferative assay. The protocol: as §2, §3
Series [12] has as its system MDA-MB-231 (human mammary gland adenocarcinoma). As to the kind of experiment: MTS antiproliferative assay. As to the method: as §2, §3
Series [13] concerns PaTu 8902 (human pancreatic adenocarcinoma). As to the kind of experiment: MTS antiproliferative assay. As to the method: as §2, §3
Series [14] has as its system human dermal fibroblasts (HDF). As to the kind of experiment: in vitro. The protocol:
as §2, §3

Series [15] can be described thus: Complex stability in biological testing medium by time-dependent 1H NMR. To be noted: 300 K, over 96 h. It counts as physicochemical. The protocol:
Nuclear magnetic resonance (NMR) data were collected on a Varian VNMRS 600 spectrometer operating at 599.87 MHz for ^1H. The concentration of all samples was approximately 3 mg/0.6 mL of 1% DMSO-d6/D2O. For comparison, the spectra of pure acids were also measured, while the pH of the solution of acids was adjusted to the same value as the solution of the complexes. The chemical shifts were referenced to the TSP (3-(trimethylsilyl)propionic-2,2,3,3-d4 acid sodium salt) peak (^1H NMR 0.00 ppm). The NMR data were recorded at 300 K, with chemical shifts δ reported in parts per million and coupling constants J in Hertz. All data were analysed using MestReNova 12.0.0 (2017) software. The stability in 1% DMSO-d6/D2O was determined for all samples. […]

Another series is described as follows: Solubility (qualitative). It counts as physicochemical.
In another series the test system is HepG2 cells. On the set-up: method as in PMID 16827101. Particulars: after 6 days of treatment; read-out: antiproliferative effect IC50; cited from earlier work.
Series [16] has as its system HepG2 (human liver cancer cell line). Kind of series: MTT cell viability test. It counts as cell-based. To be noted: 100 μM, after 48 h. As to the method:
Prior to each experiment, cell viability was determined using an automated cell counter (Countess II FL, Thermo Fisher Scientific, USA). 50 μl of the HepG2 cell suspension was transferred into new tube and 12.5 μl of trypan blue was added. After one minute, 10 μl was taken from the prepared suspension to determine the number of viable cells in 1 ml. The automated cell counter determined the total number of viable cells and the percentage of viability. […] Cells (2 × 10^4/200 μl) were incubated in 96-well microtiter plates for 24 and 48 h in the presence of metal complexes, picolinic acid, and gallium(III) nitrate, at 37 °C in humified atmosphere with 5% CO2. The cells were centrifuged for 10 min at 2500 rpm and 20 °C, supernatant was removed and 180 μl of fresh serum-free medium was added. Then 10 μl of MTT solution with a concentration of 5 mg/ml was added and cells were incubated for next 2–3 h in the dark until a precipitate formed. After centrifugation and removal of supernatant 150 μl of DMSO was added to the cells to dissolve the precipitate. Absorbance at 540 nm was measured using a spectrophotometer.

The target in series [17] is T1, bovine serum albumin (BSA) (Bos taurus, UniProt P02769).
T1 construct: purchased Sigma-Aldrich Chemicals
T1 sequence (P02769 25-607): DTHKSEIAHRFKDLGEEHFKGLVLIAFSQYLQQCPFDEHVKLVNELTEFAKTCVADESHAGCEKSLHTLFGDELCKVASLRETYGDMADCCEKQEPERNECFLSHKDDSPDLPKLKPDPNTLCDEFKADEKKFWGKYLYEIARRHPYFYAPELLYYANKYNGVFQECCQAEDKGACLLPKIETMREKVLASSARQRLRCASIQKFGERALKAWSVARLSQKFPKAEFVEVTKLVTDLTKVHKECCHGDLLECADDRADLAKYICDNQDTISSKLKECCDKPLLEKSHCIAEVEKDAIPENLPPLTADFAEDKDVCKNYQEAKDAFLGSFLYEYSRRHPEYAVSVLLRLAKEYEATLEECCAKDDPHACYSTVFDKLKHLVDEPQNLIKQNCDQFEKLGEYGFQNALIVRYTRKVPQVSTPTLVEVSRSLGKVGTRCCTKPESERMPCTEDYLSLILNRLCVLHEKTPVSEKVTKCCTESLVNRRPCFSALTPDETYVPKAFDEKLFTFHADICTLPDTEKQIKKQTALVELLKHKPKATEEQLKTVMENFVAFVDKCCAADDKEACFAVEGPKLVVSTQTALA
Kind of series: BSA fluorescence quenching (Stern-Volmer). It counts as binding. Particulars: 0.01 M PBS buffer pH 7.4, 25 °C, λex = 280 nm. The protocol: Fluorescence measurements were carried out on a Varian Cary Eclipse spectrofluorometer. The quenching studies of BSA with the Ga(III) complexes were investigated to determine whether they were able to quench fluorescence of BSA. All measurements were performed at 25 °C in 0.01 M PBS buffer (pH 7.4). The fluorescence spectra were measured at an excitation wavelength of 280 nm, with a slit width of 10 nm for the excitation and emission beams, in the range of 300–450 nm and analysed according to the classical Stern–Volmer Equation: F0/F=1+KSVQ where F0 and F are the fluorescence intensities in the absence and the presence of the quencher, respectively, KSV is the Stern–Volmer constant, and [Q] is the concentration of quencher.

Series [18] relates to cancer cell lines (A2780, MDA-MB-231, HCT116). On the set-up: method as in PMID 32354569. To be noted: cited from earlier work.
For series [19] the following is noted: cited from earlier work.
On the set-up of series [20]: method as in doi:10.1002/hlca.19600430611. Particulars: cited from earlier work.

Bounds are passed on as bounds.

By IC50 is commonly meant the concentration at which inhibition is half-maximal. With `O.O.O=C([O-])c1cc(Cl)cc(C(=O)[O-])n1.O=C([O-])c1cc(Cl)cc(C(=O)[O-])n1.[Ga+3].[Ga+3].[OH-].[OH-]` [GaCldpic, [Ga(Cldpic)(H2O)(OH)]2], the concentration for half-maximal inhibition (IC50) was above 2000 µM in series [1]; 50 µM in series [2]; above 2000 µM in [3]; above 2000 µM in series [4]; above 2000 µM in series [5]; above 2000 µM in series [6]. Also, the IC50 in series [7] was above 2000 µM; in [8], 294 ± 57.5 µM; in series [9], 404 ± 47.7 µM; in [10] it was 447 ± 134 µM; in series [11] it was 405 ± 87 µM; in [12], 271 ± 68.3 µM. Further, the figures for the IC50 in series [13] and in series [14] were 437 ± 22.6 µM and 447 ± 27.6 µM, respectively. Moreover, the “partial inhibition of E. coli growth” value in [1] (concentration not given) is 30%. Besides, the “MIC100 (MIC) P. aeruginosa” value in series [2] turned out to be 500 µM. Further, in series [15], the “stability in 1% DMSO-d6/D2O solution” value is “stable”. Moreover, in the series “Solubility (qualitative)”, the solubility in ethanol result is listed as “slightly soluble”.
Turning to `Cc1occc(=O)c1[O-].Cc1occc(=O)c1[O-].Cc1occc(=O)c1[O-].[Ga+3]` [GaM, Ga(III) maltolate], the IC50 in the series with HepG2 cells was 25 to 35 µM.
Consider `O.O=C([O-])c1ccccn1.O=C([O-])c1ccccn1.O=C([O-])c1ccccn1.[Ga+3]` [GaPic, [Ga(Pic)3]·H2O], for which the IC50 in series [1] was above 2000 µM; in series [2], 50 µM; in series [3] it was 2000 µM; in series [4], above 2000 µM; in series [5] it was above 2000 µM; in series [6] it was above 2000 µM. In addition, the IC50 is above 2000 µM in series [7]; 187 ± 12.2 µM in series [8]; 995 ± 27.5 µM in series [9]; 1530 ± 108 µM in series [10]; 175 ± 47.7 µM in series [11]; 152 ± 74.3 µM in series [12]. Also, the IC50 was 271 ± 34.3 µM in series [13] and 231 ± 23.8 µM in series [14]. The “MIC100 (MIC) P. aeruginosa” value in series [2] came to 500 µM. For the same compound, in [3] (complex at 2 mM), the “inhibition of S. aureus growth” value is 50%. For the same compound, the “decrease in cell viability of HepG2” value in series [16] is listed as 28%. In series [17], the “Stern–Volmer binding constant Ksv BSA” value stood at 46700 M⁻¹. Besides, the “stability in 1% DMSO-d6/D2O solution” value in series [15] is recorded as “does not decompose”.
On to `CO.[Ga+3].[O-]c1ccc(Cl)c2cccnc12.[O-]c1ccc(Cl)c2cccnc12.[O-]c1ccc(Cl)c2cccnc12` [[Ga(ClQ)3]⋅MeOH], for which the “activity of the Ga(III) complex relative to the activity of H-ClQ” value in [18] is given as “at least 2.5 times”.
On to `O=C(O)c1cccnc1` [nicotinic, nicotinic acid], for which the “dissociation constant pK2” value in series [19] is 4.66.
Take Fe(Dpic)2: the “stability constant logβ021” value in series [20] is 17.13.
